Assay type in all cases: cell-based
The test system of one assay is A. ochraceus. Description: Antifungal bioassay (MIC/MFC). The settings on record: Aspergillus ochraceus, A.o. (A. ochraceus); for MIC: read-out: MIC. The method, then: (§1) For the antifungal bioassays, six fungi were used: […] The organisms were obtained from the Mycological Laboratory, Department of Plant Physiology, Institute for Biological Research “Siniša Stankovic”, Belgrade, Serbia. All experiments were performed in duplicate.

In assay [1] the test system is Aspergillus fumigatus (ATCC 1022). Nature of the assay: Antifungal bioassay (MIC/MFC). To be noted: ATCC1022, A.f. (A. fumigatus). As to the method: as §1
Assay [2] concerns Aspergillus niger (ATCC 6275). Nature of the assay: Antifungal bioassay (MIC/MFC). The settings on record: ATCC6275, A.n. (A. niger). As to the method:
as §1

Assay [3] deals with Aspergillus versicolor (ATCC 11730). Nature of the assay: Antifungal bioassay (MIC/MFC). To be noted: ATCC11730, A.v. (A. versicolor). The method, then: as §1
The subject of another assay is P. ochrochloron. Description: Antifungal bioassay (MIC/MFC). To be noted: Penicillium ochrochloron; for MFC: P.o. (P. ochrochloron); for MIC: P.o. (P. ochrochloron; text: P. ochramensis), read-out: MIC. The method, then: as §1
Assay [4] relates to Penicillium funiculosum (ATCC 36839). Nature of the assay: Antifungal bioassay (MIC/MFC). The settings on record: Talaromyces funiculosus, ATCC36839; P.f. (P. funiculosum). As to the method:
as §1

Assay [5] has as its system Trichoderma viride (IAM 5061). Description: Antifungal bioassay (MIC/MFC). The settings on record: Trichoderma viride, IAM5061, T.v. (T. viride). The method, then: as §1
Assay [6] deals with Penicillium verrucosum var. cyclopium (food isolate). Description: Antifungal bioassay (MIC/MFC). As to the method: For the antifungal bioassays, six fungi were used: Aspergillus niger (ATCC 6275), Aspergillus fumigatus (ATCC 1022), Aspergillus versicolor (ATCC 11730), Penicillium funiculosum (ATCC 36839), Trichoderma viride (IAM 5061), and Penicillium verrucosum var. cyclopium (food isolate). The organisms were obtained from the Mycological Laboratory, Department of Plant Physiology, Institute for Biological Research “Siniša Stankovic”, Belgrade, Serbia. All experiments were performed in duplicate.

Assay [7] concerns Bacillus cereus (clinical isolate). Nature of the assay: Antibacterial microdilution (MIC/MBC). To be noted: Bacillus cereus, B.c. (B. cereus); for MIC: read-out: MIC. As to the method:
(§2) The synthesized compounds (Table 1) were evaluated for their antibacterial activity against a panel of eight species using a microdilution method with ampicillin and streptomycin as reference drugs. […] The order of activity can be presented as: 8 > 11 > 2 > 1 > 12 > 3 > 17 > 7 > 5 > 13 > 14 > 16 > 9 > 4 = 6 > 15 > 10. […] Cloacae. […] The most sensitive bacteria appeared to be En. cloacae, while E. coli was the most resistant one, followed by M. flavus.
(§3) The following Gram-negative bacteria: Escherichia coli (ATCC 35210), Enterobacter cloacae (clinical isolate), Salmonella typhimurium (ATCC 13311), as well as Gram-positive bacteria: Listeria monocytogenes (NCTC 7973), Bacillus cereus (clinical isolate), and Staphylococcus aureus (ATCC 6538) were used. The organisms were obtained from the Mycological Laboratory, Department of Plant Physiology, Institute for Biological Research “Siniša Stankovic”, Belgrade, Serbia. The minimum inhibitory (MIC) and minimum bactericidal (MBC) concentrations were determined by the modified microdilution method, as previously reported.
Background: In broth dilution the organism is exposed to a series of concentrations in liquid medium.

The subject of assay [8] is Enterobacter cloacae (clinical isolate). Description: Antibacterial microdilution (MIC/MBC). To be noted: En.cl (En. cloacae). As to the method:
as §2, §3

Assay [9] deals with Escherichia coli (ATCC 35210). Nature of the assay: Antibacterial microdilution (MIC/MBC). The settings on record: Escherichia coli, ATCC35210, E. coli; for MIC: read-out: MIC. As to the method:
as §2, §3

In assay [10] the test system is Listeria monocytogenes (NCTC 7973). Nature of the assay: Antibacterial microdilution (MIC/MBC). The settings on record: L.m. (L. monocytogenes). As to the method: as §2, §3
A further assay deals with M. flavus. Description: Antibacterial microdilution (MIC/MBC). To be noted: Micrococcus flavus; M.f. (M. flavus). As to the method: as §2, §3
The next assay deals with P. aeruginosa. Nature of the assay: Antibacterial microdilution (MIC/MBC). The settings on record: Pseudomonas aeruginosa, P.a. (P. aeruginosa); for MIC: read-out: MIC. As to the method:
as §2, §3

Assay [11] concerns Salmonella typhimurium (ATCC 13311). Description: Antibacterial microdilution (MIC/MBC). The settings on record: Salmonella enterica, S.t. (S. typhimurium); for MIC: read-out: MIC. The method, then:
as §2, §3

Assay [12] has as its system Staphylococcus aureus (ATCC 6538). Nature of the assay: Antibacterial microdilution (MIC/MBC). The settings on record: Staphylococcus aureus, ATCC6538, S.a. (S. aureus); for MIC: read-out: MIC. As to the method:
as §2, §3

Setting [13] is: Enterobacter cloacae, read-out: MIC.
Setting [14] is: Listeria monocytogenes, NCTC7973.
Setting [15] is: Listeria monocytogenes, NCTC7973, read-out: MIC.

Values after ≈ are worked out from the molar mass of the structure shown. Where two headings read alike, the source gives them in different places.

As a reminder, the MFC is the smallest concentration meeting the test's criterion for killing the fungus. The term MIC denotes the lowest concentration that inhibits growth of the organism. A word on the MBC: it is the lowest tested concentration that kills the bacteria rather than only halting them.

As for `c1ccc(-c2ccc(C(c3ccccc3)n3ccnc3)cc2)cc1` (stereo not shown) [Bifonazole, reference compound], the MFC against A. ochraceus was determined as 200 ± 10 µg/mL (≈ 644 µM); in [1], 200 ± 10 µg/mL (≈ 644 µM); in assay [2] it was 200 ± 10 µg/mL (≈ 644 µM); in [3], 200 ± 10 µg/mL (≈ 644 µM); in the assay on P. ochrochloron it was 250 ± 50 µg/mL (≈ 805 µM); in assay [4], 250 ± 50 µg/mL (≈ 805 µM). In addition, the MFC in assay [5] was determined as 200 ± 10 µg/mL (≈ 644 µM); in [6] (P.v.c. (P. cyclpoium var verucosum), read-out: MFC), 200 ± 10 µg/mL (≈ 644 µM). For the same compound, the MIC in the assay on A. ochraceus came to 150 ± 50 µg/mL (≈ 483 µM); in assay [1], 150 ± 50 µg/mL (≈ 483 µM); in assay [2], 150 ± 50 µg/mL (≈ 483 µM); in [3], 100 ± 2 µg/mL (≈ 322 µM); in the assay with P. ochrochloron, 200 ± 10 µg/mL (≈ 644 µM); in assay [4], 200 ± 10 µg/mL (≈ 644 µM). The minimum inhibitory concentration (MIC) came out at 150 ± 50 µg/mL (≈ 483 µM) in assay [5] (read-out: MIC) and 100 ± 9 µg/mL (≈ 322 µM) in assay [6] (P.v.c. (P. cyclpoium var verucosum), read-out: MIC).

Consider `[H]/N=C(/N)N[C@H]1[C@H](O)[C@@H](O)[C@H](O[C@@H]2O[C@@H](C)[C@](O)(C=O)[C@H]2O[C@@H]2O[C@@H](CO)[C@H](O)[C@@H](O)[C@@H]2NC)[C@@H](N/C(N)=N\[H])[C@@H]1O` [Streptomycin, reference compound], for which the MBC amounted to 3 ± 0.5 µg/mL (≈ 5.16 µM) in assay [7]; 300 ± 30 µg/mL (≈ 516 µM) in assay [8] (Enterobacter cloacae); 200 µg/mL (≈ 344 µM) in assay [9]; 300 ± 30 µg/mL (≈ 516 µM) in [10] (setting [14]); 300 ± 30 µg/mL (≈ 516 µM) in the assay on M. flavus; 200 µg/mL (≈ 344 µM) against P. aeruginosa. For the same compound, the MBC in [11] was 200 ± 9 µg/mL (≈ 344 µM); in assay [12], 200 µg/mL (≈ 344 µM). The MIC in assay [7] was 1.5 ± 0.2 µg/mL (≈ 2.58 µM); in assay [8] (setting [13]) it was 200 ± 5 µg/mL (≈ 344 µM); in [9], 100 ± 50 µg/mL (≈ 172 µM); in assay [10] (setting [15]), 150 ± 30 µg/mL (≈ 258 µM); in the assay on M. flavus it was 200 µg/mL (≈ 344 µM); with P. aeruginosa, 100 ± 50 µg/mL (≈ 172 µM). For the same compound, the MIC in assay [11] was determined as 100 ± 50 µg/mL (≈ 172 µM); in assay [12], 100 µg/mL (≈ 172 µM).

Regarding `COC(=O)c1[nH]c2ccc(F)cc2c1/C=C1\SC(=S)N(C(C(=O)O)C(C)C)C1=O` (stereo not shown) [Compound 8, (Z)-2-(5-((5-fluoro-2-(methoxycarbonyl)-1H-indol-3-yl)methylene)-4-oxo-2-thioxothiazolidin-3-yl)-3-methylbutanoic acid], the MBC in [7] was 60 ± 6 µg/mL (≈ 137 µM); in assay [8] (Enterobacter cloacae), 8 ± 0.6 µg/mL (≈ 18.3 µM); in assay [9], 15 ± 9 µg/mL (≈ 34.4 µM); in assay [10] (setting [14]) it was 30 ± 10 µg/mL (≈ 68.7 µM); in the assay with M. flavus, 60 ± 6 µg/mL (≈ 137 µM); in the assay on P. aeruginosa, 8 ± 0.6 µg/mL (≈ 18.3 µM). The MBC in [11] was 15 ± 9 µg/mL (≈ 34.4 µM); in [12] it was 60 ± 6 µg/mL (≈ 137 µM). The minimal inhibitory concentration (MIC) was 30 ± 10 µg/mL (≈ 68.7 µM) in assay [7]; 4 ± 5 µg/mL (≈ 9.16 µM) in [8]; 4 µg/mL (≈ 9.16 µM) in [8] (setting [13]); 8 ± 1 µg/mL (≈ 18.3 µM) in assay [9]; 15 ± 1 µg/mL (≈ 34.4 µM) in [10]; 15 µg/mL (≈ 34.4 µM) in assay [10] (setting [15]). The MIC is 30 ± 10 µg/mL (≈ 68.7 µM) against M. flavus; 4 ± 5 µg/mL (≈ 9.16 µM) with P. aeruginosa; 8 ± 9 µg/mL (≈ 18.3 µM) in assay [11]; 30 ± 10 µg/mL (≈ 68.7 µM) in assay [12]; 8 ± 0.6 µg/mL (≈ 18.3 µM) in the assay on A. ochraceus; 60 ± 6 µg/mL (≈ 137 µM) in assay [1]. In addition, the MIC was found to be 15 ± 3 µg/mL (≈ 34.4 µM) in assay [2]; 15 ± 3 µg/mL (≈ 34.4 µM) in [3]; 15 ± 3 µg/mL (≈ 34.4 µM) in the assay with P. ochrochloron; 15 ± 3 µg/mL (≈ 34.4 µM) in [4]; 60 ± 6 µg/mL (≈ 137 µM) in assay [6]. Moreover, the MFC with A. ochraceus turned out to be 15 ± 3 µg/mL (≈ 34.4 µM); in assay [1] it was 120 ± 40 µg/mL (≈ 275 µM); in assay [2], 30 ± 10 µg/mL (≈ 68.7 µM); in assay [3] it was 30 ± 10 µg/mL (≈ 68.7 µM); against P. ochrochloron, 30 ± 10 µg/mL (≈ 68.7 µM); in assay [4], 30 ± 10 µg/mL (≈ 68.7 µM). Besides, the MFC in assay [6] came to 120 ± 40 µg/mL (≈ 275 µM).
